The values below come from US20130071931A1, “PROCESS FOR HEPATIC DIFFERENTIATION FROM INDUCED HEPATIC STEM CELLS, AND INDUCED HEPATIC PROGENITOR CELLS DIFFERENTIATED THEREBY” (NATIONAL CANCER CENTER, priority 2011, published 2013).

Counter-ions that a name gives are not always drawn.

The test system of experiment [1] is human induced hepatic stem cells NGC1-1. As to the kind of experiment: Quantitative RT-PCR, differentiation with TGF-β signaling inhibitors (Example 11). It counts as cell-based. As to conditions: cell samples Nos. 1141-1145: 0.5 μM inhibitor in ReproStem + 10 ng/mL aFGF, no feeder cells, Matrigel, 7 days after seeding; No. 1133 taken as 1. As to the method:
The resultant cell samples are respectively referred to as “Nos. 1141-1145”. No. 1140 was cultured in the absence of any inhibitor. Nos. 1141-1145 were cultured in the presence of the following inhibitors, respectively. No. 1141: […] Cat. No. 2939) No. 1142: […] MERCK Calbiochem; Cat. […] MERCK Calbiochem; Cat. […] Cayman; Cat. No. 13031) No. 1145: […] Cayman; Cat. No. 13341). […] Seven days after the seeding, the cells were lysed in 1 mL/well of a QIAzol reagent to prepare the total RNA from the cell lysate using the miRNeasy Mini Kit (Qiagen). The total RNA was subjected to quantitative RT-PCR using the iScript Advanced cDNA synthesis kit, the SsoAdvanced SYBR Green Supremix ([…]), and the CFX96 Real-Time System C1000 Thermal Cycler, all manufactured by Bio-Rad.

Experiment [2] concerns human induced hepatic stem cells AFB1-1. The experiment in a line: Quantitative RT-PCR, differentiation with TGF-β signaling inhibitors (Example 12). As to conditions: cell samples Nos. 1545-1549: 0.5 μM inhibitor in ReproStem (bFGF-free), no feeder cells, Matrigel, 13 days after seeding; for KRT7 expression ratio: No. 1543 taken as 1; for GAPDH expression Ct value: housekeeping gene. It counts as cell-based. As to the method:
The resultant cell samples are respectively referred to as “Nos. 1545-1549”. No. 1544 was cultured in the absence of any inhibitor. Nos. 1545-1549 were cultured in the presence of the following inhibitors, respectively.
Thirteen days after the seeding, the cells were lysed in 1 mL/well of a QIAzol reagent to prepare the total RNA from the cell lysate using the miRNeasy Mini Kit (Qiagen). The total RNA was subjected to quantitative RT-PCR using the iScript Advanced cDNA synthesis kit, the SsoAdvanced SYBR Green Supremix ([…]), and the CFX96 Real-Time System C1000 Thermal Cycler, all manufactured by Bio-Rad. The quantified genes were ALB, AAT, TTR, AFP, cytokeratin 7 (KRT7), cytokeratin 19 (KRT19), and DLK1 (Delta-like 1 homolog).

For experiment [3] the test system is unchanged. The experiment in a line: Quantitative RT-PCR of marker genes, hepatic differentiation on Matrigel (Examples 2-4). Type of experiment: cell-based. Particulars: cell sample No. 391: aFGF 10 ng/mL/ReproStem (bFGF-free), no feeder cells, 13 days, No. 377 taken as 1.
For experiment [4] the test system is unchanged. The experiment in a line: AFP in culture supernatant, hepatic differentiation on Matrigel (Examples 2-4). As to conditions: cell sample No. 391: aFGF 10 ng/mL/ReproStem (bFGF-free), no feeder cells, 13 days after seeding.

`c1ccc(-c2n[nH]cc2-c2ccnc3ccccc23)nc1` [LY-364947, 4-[3-(2-pyridinyl)-1H-pyrazol-4-yl]-quinoline]: in experiment [1], the AAT expression ratio came to 14.36, the AFP expression ratio was 369.23, the ALB expression ratio was determined as 114.78 and the TTR expression ratio is listed as 482.45.

Take `NC(=O)c1ccc(-c2nc(-c3ccc4c(c3)OCO4)c(-c3ccccn3)[nH]2)cc1` [SB431542, 4-[4-(1,3-benzodioxol-5-yl)-5-pyridin-2-yl-1H-imidazol-2-yl]benzamide]: in experiment [1], the AAT expression ratio is listed as 12.15, the AFP expression ratio is on record as 394.40, the ALB expression ratio is 94.46 and the TTR expression ratio stood at 614.17.

As for `Cc1cccc(-c2[nH]c(C(C)(C)C)nc2-c2ccc3c(c2)OCO3)n1.Cl` [SB-505124, 2-(5-benzo[1,3]dioxol-5-yl-2-tert-butyl-3H-imidazol-4-yl)-6-methylpyridine hydrochloride hydrate], in experiment [2], the “AAT expression Ct value” came out at 23.56, the “AFP expression Ct value” is listed as 18.61, the “ALB expression Ct value” was determined as 23.2 and the “DLK1 expression Ct value” was determined as 18.77. Further, in experiment [2], the “KRT7 expression Ct value” came to 19.8, the “KRT19 expression Ct value” was 20.33, the “TTR expression Ct value” is reported as 17.24 and the KRT7 expression ratio was determined as 2768. The “GAPDH expression Ct value” in experiment [2] is 13.25.

As for `Cc1cccc(-c2n[nH]cc2-c2ccc3ncccc3n2)n1` [compound 616451, 3-(pyridin-2-yl)-4-(4-quinonyl)-1H-pyrazole], in experiment [1], the AAT expression ratio came to 13.45, the AFP expression ratio was determined as 747.65, the ALB expression ratio stood at 163.71 and the TTR expression ratio came out at 966.14.

Regarding `Cc1cccc(-c2n[nH]cc2-c2ccc3ncccc3n2)n1` [compound 616452, 2-(3-(6-methylpyridin-2-yl)-1H-pyrazol-4-yl)-1,5-naphthyridine], in experiment [1], the AAT expression ratio is recorded as 22.18, the AFP expression ratio is recorded as 720.03, the ALB expression ratio is 296.67 and the TTR expression ratio is listed as 1,262.14.

Take `Cc1cccc(-c2nc(C(C)(C)C)[nH]c2-c2ccc3c(c2)OCO3)n1` [compound 616453, HCl]: in experiment [2], the “AAT expression Ct value” worked out at 24.09, the “AFP expression Ct value” turned out to be 20.24, the “ALB expression Ct value” stood at 25.55 and the “DLK1 expression Ct value” was determined as 18.74. Besides, in experiment [2], the “KRT7 expression Ct value” was determined as 19.45, the “KRT19 expression Ct value” is listed as 20.29, the “TTR expression Ct value” was 18.13 and the KRT7 expression ratio turned out to be 4761. Moreover, the “GAPDH expression Ct value” in experiment [2] was determined as 13.76.

For `Fc1ccc(Cl)cc1-c1nc(Nc2ccncc2)c2nccnc2n1` [compound 616456], in experiment [2], the “AAT expression Ct value” is listed as 23.54, the “AFP expression Ct value” stood at 17.48, the “ALB expression Ct value” turned out to be 21.35 and the “DLK1 expression Ct value” turned out to be 19.1. Also, in experiment [2], the “KRT7 expression Ct value” amounted to 20.05, the “KRT19 expression Ct value” turned out to be 20.45, the “TTR expression Ct value” is on record as 17.4 and the KRT7 expression ratio was 3186. In addition, the “GAPDH expression Ct value” in experiment [2] is 13.72.

Regarding `Cc1cccc(-c2[nH]c(C(C)(C)C)nc2-c2ccc3nccnc3c2)n1` [compound 616459, 6-(2-tert-butyl-5-(6-methyl-pyridin-2-yl)-1H-imidazol-4-yl)-quinoxaline], in experiment [2], the “AAT expression Ct value” is 23.54, the “AFP expression Ct value” turned out to be 19.25, the “ALB expression Ct value” was 24.67 and the “DLK1 expression Ct value” was 18.66. In experiment [2], the “KRT7 expression Ct value” came to 19.89, the “KRT19 expression Ct value” amounted to 20.36, the “TTR expression Ct value” was 17.24 and the KRT7 expression ratio is 4905. The “GAPDH expression Ct value” in experiment [2] amounted to 14.24.

“aFGF: aFGF, 10 ng/mL supplement of bFGF-free ReproStem medium (cell sample No. 391)”: in experiment [3], the AAT expression level was found to be 220, the AFP expression level is 3,420, the ALB expression level was 3,172 and the DLK1 expression level is given as 786. Besides, the TTR expression level in experiment [3] is given as 3,910. For the same molecule, the “α-fetoprotein (AFP) in culture supernatant” value in experiment [4] is 3,300 ng/mL.
